Experimental data from patent US12398155B2, “Thienopyridinone compounds” (Janssen Pharmaceutica NV, priority 2019, dated 2025).
Structures can show the parent of a compound that is named as a salt.

Legend:
[1] = biological target: T1, NIH/3T3 cells overexpressing FGFR3 WT-TACC3 fusion protein (Homo sapiens, UniProt P22607); experiment: NIH/3T3 FGFR3 WT-TACC3 cell proliferation assay; type: cell-based; details: 72-hr incubation, CellTiter Glo; read-out: NIH/3T3 FGFR3 WT-TACC3 CTG
T1 construct: NIH/3T3 FGFR3 WT-TACC3 CTG; other: 72-hr incubation, CellTiter Glo; fused on or other part: C-terminal part of TACC3 (coiled-coil) fused behind the FGFR3 kinase domain; Q9Y6A5 (Transforming acidic coiled-coil-containing protein 3)
T1 sequence (P22607 whole entry, change not shown, the tested form may be a part): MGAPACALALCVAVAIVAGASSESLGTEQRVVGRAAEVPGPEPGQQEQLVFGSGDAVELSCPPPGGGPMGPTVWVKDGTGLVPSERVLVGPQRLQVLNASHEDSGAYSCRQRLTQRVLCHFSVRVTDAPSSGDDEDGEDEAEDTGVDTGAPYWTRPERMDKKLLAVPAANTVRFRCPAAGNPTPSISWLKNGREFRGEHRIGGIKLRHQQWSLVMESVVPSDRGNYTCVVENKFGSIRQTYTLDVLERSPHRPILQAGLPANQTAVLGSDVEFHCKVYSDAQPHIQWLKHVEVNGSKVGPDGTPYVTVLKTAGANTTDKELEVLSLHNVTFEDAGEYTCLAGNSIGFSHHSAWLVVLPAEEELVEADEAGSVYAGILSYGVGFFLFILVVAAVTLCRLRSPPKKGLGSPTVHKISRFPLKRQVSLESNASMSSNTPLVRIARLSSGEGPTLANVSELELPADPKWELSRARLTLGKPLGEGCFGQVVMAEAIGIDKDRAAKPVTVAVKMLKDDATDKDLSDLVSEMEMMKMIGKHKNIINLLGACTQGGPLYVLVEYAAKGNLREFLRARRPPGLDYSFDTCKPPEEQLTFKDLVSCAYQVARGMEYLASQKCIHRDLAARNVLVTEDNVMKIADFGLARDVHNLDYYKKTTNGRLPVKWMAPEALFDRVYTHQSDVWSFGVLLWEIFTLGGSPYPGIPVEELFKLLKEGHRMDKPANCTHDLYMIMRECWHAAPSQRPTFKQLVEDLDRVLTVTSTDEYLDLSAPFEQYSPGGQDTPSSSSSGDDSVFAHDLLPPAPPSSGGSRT
Procedure: NIH/3T3 FGFR3 WT-TACC3 Cell Proliferation Assay
(§1) In day 1, 90 μL of cell suspension (NIH/3T3 cells overexpressing FGFR3 WT-TACC3 fusion protein) (total 30,000 cells per well in growth medium (DMEM containing 1% Glutamax, 10% FBS and 1% Pen/Strep)) was seeded in a 96-well plate and then incubated overnight at 37° C. and 5% CO2. In day 2, 10 μL of growth medium containing 10-fold stock solution of testing compound was added into cell cultures (9 dose points with 4× serial dilution, starting with 10 μM, 0.1% DMSO final). After 72-hr incubation at 37° C. and 5% CO2, in day 5 a volume of 50 μL CellTiter Glo (CTG) reagent was added into cell-containing 96-well plate and the plate was incubated at room temperature for 10 minutes before RLUs (relative light unit) were measured on a microplate reader with luminescence detection module. The RLU value was normalized to survival % and concentration-response curve was plotted using Prism to calculate IC50 (M), pIC50 (−log IC50) and HillSlope value.

[2] = test system: NIH/3T3 cells transfected with control vector; experiment: NIH/3T3 mock cell proliferation assay (counter assay, general toxicity); type: cell-based; details: Mus musculus, NIH3T3; 72-hr incubation, CellTiter Glo; read-out: NIH/3T3 MOCK CTG
Procedure: NIH/3T3 Mock Cell Proliferation Assay
as §1, with “cells transfected with the same control vector as in the above two proliferation assays)” for “cells overexpressing FGFR3 WT-TACC3 fusion protein)”, “with 3×” for “with 4×”, “with 30” for “with 10”, “μM, 0.3%” for “μM, 0.1%”

[3] = biological target: T2, NIH/3T3 cells overexpressing FGFR3 V555M-TACC3 fusion protein (Homo sapiens, UniProt P22607, V555M, cells depend on it); experiment: NIH/3T3 FGFR3 V555M-TACC3 cell proliferation assay; type: cell-based; details: 72-hr incubation, CellTiter Glo; read-out: NIH/3T3 FGFR3 V555M-TACC3 CTG
T2 construct: NIH/3T3 FGFR3 V555M-TACC3 CTG; other: 72-hr incubation, CellTiter Glo; fused on or other part: C-terminal part of TACC3 (coiled-coil) fused behind the FGFR3 kinase domain; Q9Y6A5 (Transforming acidic coiled-coil-containing protein 3)
T2 sequence (P22607 whole entry V555M, the tested form may be a part): as the sequence (P22607 whole entry, change not shown, the tested form may be a part) above, with V555M counted along it
Procedure: NIH/3T3 FGFR3 V555M-TACC3 Cell Proliferation Assay
as §1, with “V555M-TACC3” for “WT-TACC3”

[4] = biological target: T3, human FGFR3 V555M enzyme (cytoplasmic domain carrying V555M mutation) (Homo sapiens, UniProt P22607, V555M); experiment: FGFR3 V555M mobility shift assay (enzymatic assay); type: biochemical; details: 30 μM ATP, 45 minutes at 30° C.; read-out: FGFR3 V555M Caliper
T3 construct: cytoplasmic domain carrying V555M mutation, from Cama Biosciences; purchased Cama Biosciences (so in the source)
T3 sequence (P22607 397-806 V555M limits assumed): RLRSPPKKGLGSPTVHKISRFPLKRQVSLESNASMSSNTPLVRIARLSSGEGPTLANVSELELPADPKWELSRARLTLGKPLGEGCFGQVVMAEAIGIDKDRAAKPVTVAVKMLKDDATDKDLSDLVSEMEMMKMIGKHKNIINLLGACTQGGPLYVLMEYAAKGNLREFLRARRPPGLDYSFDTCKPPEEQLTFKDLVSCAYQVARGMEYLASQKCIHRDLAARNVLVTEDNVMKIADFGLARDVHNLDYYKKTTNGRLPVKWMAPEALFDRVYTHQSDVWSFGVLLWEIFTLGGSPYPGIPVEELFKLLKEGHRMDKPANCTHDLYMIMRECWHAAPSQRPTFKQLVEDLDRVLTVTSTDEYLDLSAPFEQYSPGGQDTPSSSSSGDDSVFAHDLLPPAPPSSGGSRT
Procedure: FGFR3 V555M Mobility Shift Assay (Enzymatic Assay)
(§2) In a final reaction volume of 25 μL, 0.04 ng/μL human FGFR3 V555M enzyme (cytoplasmic domain carrying V555M mutation, from Cama Biosciences) was incubated with 30 μM ATP, 1 μM FL-peptide 30 substrate and 250 nL of testing compound (1% DMSO final) in assay buffer (100 mM HEPES pH 7.4, 10 mM MgCl2, 0.003% Brij35, 1 mM DTT). After incubation for 45 minutes at 30° C. the reaction was stopped with 10 μL of 0.5M EDTA pH 8.0, and then 25 μL of reaction mixture was transferred to reading plate and measured on Caliper EZ reader II. The substrate-product conversion rate was used as raw data for normalization and concentration-response curve (10 dose points with 4× serial dilution, starting with 10 μM) was plotted using Prism to calculate IC50 (M), pIC50 (−log IC50) and HillSlope value.

[5] = biological target: T4, human FGFR3 wild type enzyme (cytoplasmic domain) (Homo sapiens, UniProt P22607); experiment: FGFR3 wild type mobility shift assay (enzymatic assay); type: biochemical; details: 75 μM ATP, 50 minutes at 30° C.; read-out: FGFR3 wild type Caliper
T4 construct: human FGFR3 wild type enzyme (cytoplasmic domain, from Cama Biosciences); purchased Cama Biosciences (so in the source)
T4 sequence (P22607 397-806 limits assumed): as the sequence (P22607 397-806 V555M limits assumed) above, with M159V counted along it
Procedure: FGFR3 Wild Type Mobility Shift Assay (Enzymatic Assay)
as §2, with “FGFR3 wild type” for “FGFR3 V555M”, “(cytoplasmic domain,” for “(cytoplasmic domain carrying V555M mutation,”, “with 75” for “with 30”, “for 50” for “for 45”

SMILES	GI50 [1]	IC50 [2]	GI50 [3]	IC50 [4]	IC50 [5]
COCC(Nc1c(-c2nc3cnc(N4C[C@@H](C)O[C@@H](C)C4)cc3[nH]2)c(=O)[nH]c2ccsc12)c1ncccn1 (single isomer, unassigned) [Compound 7, (S*)-6-(6-(cis-2,6-dimethylmorpholino)-1H-imidazo[4,5-c]pyridin-2-yl)-7-((2-methoxy-1-(pyrimidin-2-yl)ethyl)amino)thieno[3,2-b]pyridin-5(4H)-one]	486 nM	3050 nM	284 nM	2.34 nM	35.5 nM
COCC(Nc1c(-c2nc3cnc(N4C[C@@H](C)O[C@@H](C)C4)cc3[nH]2)c(=O)[nH]c2ccsc12)c1ncccn1 (single isomer, unassigned) [Compound 8, (R*)-6-(6-(cis-2,6-dimethylmorpholino)-1H-imidazo[4,5-c]pyridin-2-yl)-7-((2-methoxy-1-(pyrimidin-2-yl)ethyl)amino)thieno[3,2-b]pyridin-5(4H)-one]	–	–	–	9.42 nM	28.6 nM
COC[C@@H](Nc1c(-c2nc3ccc(N4C[C@@H](C)O[C@@H](C)C4)nc3[nH]2)c(=O)[nH]c2ccsc12)c1ncccn1 (single isomer, unassigned) [Compound 10, (S*)-6-(5-(cis-2,6-dimethylmorpholino)-3H-imidazo[4,5-b]pyridin-2-yl)-7-(((S*)-2-methoxy-1-(pyrimidin-2-yl)ethyl)amino)thieno[3,2-b]pyridin-5(4H)-one]	–	–	–	119 nM	290 nM
COC[C@H](Nc1c(-c2nc3ccc(N4C[C@@H](C)O[C@@H](C)C4)nc3[nH]2)c(=O)[nH]c2ccsc12)c1ncccn1 (single isomer, unassigned) [Compound 11, (R*)-6-(5-(cis-2,6-dimethylmorpholino)-3H-imidazo[4,5-b]pyridin-2-yl)-7-(((R*)-2-methoxy-1-(pyrimidin-2-yl)ethyl)amino)thieno[3,2-b]pyridin-5(4H)-one]	101 nM	3200 nM	91.1 nM	0.93 nM	8.73 nM
CC(C)[C@H](Nc1c(-c2nc3cnc(N4CCN(C)CC4)cc3[nH]2)c(=O)[nH]c2ccsc12)c1ncccn1 (single isomer, unassigned) [Compound 12, (S*)-7-((2-methyl-1-(pyrimidin-2-yl)propyl)amino)-6-(6-(4-methylpiperazin-1-yl)-1H-imidazo[4,5-c]pyridin-2-yl)thieno[3,2-b]pyridin-5(4H)-one 0.6 formate]	3.82 nM	482 nM	5.02 nM	0.33 nM	0.24 nM
C[C@@H](Nc1c(-c2nc3cnc(N4CCOCC4)cc3[nH]2)c(=O)[nH]c2ccsc12)c1ncccn1 [Compound 3, (R)-6-(6-Morpholino-1H-imidazo[4,5-c]pyridin-2-yl)-7-((1-(pyrimidin-2-yl)ethyl)amino)-thieno[3,2-b]pyridin-5(4H)-one]	–	–	–	2.74 nM	21.2 nM
C[C@H](Nc1c(-c2nc3cnc(N4CCN(C)CC4)cc3[nH]2)c(=O)[nH]c2ccsc12)c1ncccn1 [Compound 5, (S)-6-(6-(4-methylpiperazin-1-yl)-1H-imidazo[4,5-c]pyridin-2-yl)-7-((1-(pyrimidin-2-yl)-ethyl)amino)thieno[3,2-b]pyridin-5(4H)-one]	2.1 nM	571 nM	4.64 nM	0.13 nM	0.14 nM
